In article PMC5127184 (Scientific Reports, 2016):
Entries after “also recorded” stand apart in the source; their conditions may differ. Values belong to the compound of their own block, whether it stands above or below them. Ends that are not written are not given here.

Key:
INS-1 (832/13) cells = assay: cAMP accumulation, INS-1 (832/13) cells; assay type: cell-based; settings: normalized to forskolin response, means ± S.E.M. of at least three experiments in triplicate
pGLP-1R [1] = assay: Radioligand competition binding, FlpInCHO-pGLP-1R cells; parameters: species or system platypus; settings: competition with 125I-hGLP-1 (7–36), 0.15 nM, FlpInCHO cells stably expressing pGLP-1R, overnight 4 °C; means ± S.E.M. of two or three experiments in triplicate
Protocol: (§1) Human and pGLP-1R cDNAs were isogenically integrated into FlpIn-Chinese hamster ovary (FlpInCHO) cells (Invitrogen) and selection of receptor-expressing cells accomplished by treatment with 600 μg/ml hygromycin B as described previously. Transfected and parental FlpInCHO cells were maintained in DMEM supplemented with 10% heat-inactivated FBS and incubated in a humidified environment at 37 °C in 5% CO2.
Cells were then incubated overnight at 4 °C, followed by three washes with ice-cold 1 × PBS to remove unbound radioligand. Cells were then lysed in 0.1 M NaOH, and radioactivity determined by γ-counting as described previously.
(§2) All data were analysed in Prism 6.0c (GraphPad Software Inc., San Diego, CA). Concentration response signalling data were analysed using a three-parameter logistic equation as described previously. Signalling bias was analysed as described. Briefly, quantification of signal bias was performed using pharmacologically derived parameters of agonist affinity (Ka) and efficacy (tau) for each ligand in each of the three signalling pathways (cAMP accumulation, ERK1/2 phosphorylation, Intracellular Ca^2+ mobilisation). […] Data are presented on a log scale.

DPP-4 [2] = assay: Cleavage by purified human DPP-4 (RP-HPLC); assay type: in vitro ADME; settings: human, isolated enzyme dpp iv, 30 μM peptide, DPP-4 3 U/L, 0.1 M sodium phosphate pH 7.4, 37 °C, UV 215.8 nm, n = 3, read-out: Time to 50% reduction of intact peptide with purified human DPP-4
Protocol: (§3) Samples were analysed by RP-HPLC with solvent A (0.1% TFA in water) and B (80% acetonitrile in 0.1% aqueous TFA) at a flow rate of 0.5 ml/min.

pGLP-1R [3] = assay: Intracellular Ca2+ mobilization, FlpInCHO-pGLP-1R cells; assay type: cell-based, platypus; settings: normalized to 100 μM ATP, means ± S.E.M. of at least three experiments in triplicate
Protocol: as §1
(§4) FlpInCHO-hGLP-1R and FlpInCHO-pGLP-1R cells were seeded at a density of 3 × 10^4 cells/well into 96-well culture plates and incubated overnight at 37 °C in 5% CO2 and receptor-mediated intracellular Ca^2+ mobilization determined as described previously.
as §2

[4] = albumin-depleted human serum (purified by DEAE Affi-Gel Blue Cartridges); settings: 37 °C, up to 11 h
echidna serum = settings: 37 °C, up to seven hours
DPP-4 [5] = assay: DPP-4 (3 U/L) in sodium phosphate buffer (0.1 M, pH 7.4); settings: human, 37 °C, up to 120 min
hGLP-1R [6] = biological target: T1, hGLP-1R (Homo sapiens, UniProt P43220); assay: Intracellular Ca2+ mobilization, FlpInCHO-hGLP-1R cells; assay type: cell-based
T1 construct: expressed in transfected cells
Protocol: as §1, §4, §2

hGLP-1R [7] = biological target: T1, hGLP-1R; assay: cAMP accumulation, FlpInCHO-hGLP-1R cells; assay type: cell-based
Protocol: as §1, with “CO2. INS-1(832/13) cells were cultured in RPMI-1640 medium supplemented with 10 mM HEPES, 10% heat-inactivated FBS, 2 mM L-glutamine, 1 mM sodium pyruvate, 0.05 mM β-mercaptoethanol, 100 iU/ml penicillin, and 100 µg/ml streptomycin at 37 °C in a humidified 5% CO2 atmosphere. […]” for “CO2.”
All data were analysed in Prism 6.0c (GraphPad Software Inc., San Diego, CA). Concentration response signalling data were analysed using a three-parameter logistic equation as described previously. Signalling bias was analysed as described. Briefly, quantification of signal bias was performed using pharmacologically derived parameters of agonist affinity (Ka) and efficacy (tau) for each ligand in each of the three signalling pathways (cAMP accumulation, ERK1/2 phosphorylation, Intracellular Ca^2+ mobilisation). The transduction ratio (tau/Ka) was extracted from standard concentration-response data that was analysed with the operational model of agonism (Kenakin & Christopoulos 2012). […]

in vitro [8] = assay type: in vitro ADME, human; settings: 7 μM peptide, 37 °C; for Stability in albumin-depleted human serum (in words): 0-11 h, RP-HPLC, n = 3; for remaining at 11 h, 7 μM: human, 11 h incubation, serum purified by DEAE Affi-Gel Blue (albumin-depleted), RP-HPLC area under the curve of intact peptide, means ± S.E.M. of three experiments in triplicate
Protocol: (§5) Aliquots were analysed by RP-HPLC. Human serum was from the author Briony Forbes and provided with informed consent. We confirm that all methods for these studies were carried out in accordance with relevant guidelines and regulations, and all experimental protocols satisfy the Adelaide University Human Research Ethics Committee criteria as being “negligible risk research”.

hGLP-1R [9] = biological target: T1, hGLP-1R; assay: ERK1/2 phosphorylation, FlpInCHO-hGLP-1R cells; assay type: cell-based
Protocol: as §1
FlpInCHO-hGLP-1R and FlpInCHO-pGLP-1R cells were seeded at a density of 3 × 10^4 cells/well into 96-well culture plates and incubated overnight at 37 °C in 5% CO2. Receptor-mediated ERK1/2 phosphorylation was determined as previously described.
as §2

hGLP-1R [10] = biological target: T1, hGLP-1R; assay: Radioligand competition binding, FlpInCHO-hGLP-1R cells
Protocol: as §1, with “CO2. INS-1(832/13) cells were cultured in RPMI-1640 medium supplemented with 10 mM HEPES, 10% heat-inactivated FBS, 2 mM L-glutamine, 1 mM sodium pyruvate, 0.05 mM β-mercaptoethanol, 100 iU/ml penicillin, and 100 µg/ml streptomycin at 37 °C in a humidified 5% CO2 atmosphere.” for “CO2.”
FlpInCHO-hGLP-1R and FlpInCHO-pGLP-1R cells were seeded at a density of 3 × 10^4 cells/well and INS-1(832/13) cells at 10^5 cells/well into 96-well culture plates and incubated overnight at 37 °C in 5% CO2. […] Cells were then lysed in 0.1 M NaOH, and radioactivity determined by γ-counting as described previously.
All data were analysed in Prism 6.0c (GraphPad Software Inc., San Diego, CA). Concentration response signalling data were analysed using a three-parameter logistic equation as described previously. Signalling bias was analysed as described. […] The transduction ratio (tau/Ka) was extracted from standard concentration-response data that was analysed with the operational model of agonism (Kenakin & Christopoulos 2012). […]

purified human DPP-4 = purified human DPP-4 (Homo sapiens, UniProt P27487); assay: Cleavage by purified human DPP-4 (RP-HPLC); assay type: in vitro ADME; settings: 30 μM peptide, DPP-4 3 U/L, 0.1 M sodium phosphate pH 7.4, 37 °C, 0-120 min, n = 3
Protocol: as §3

in vitro [11] = assay type: in vitro ADME, echidna; settings: 7 μM peptide, 37 °C; for Uncleaved peptide remaining after 11 hours in echidna serum: RP-HPLC, sentence covers platypus and echidna sera; for remaining at 11 h, 7 μM: echidna, 11 h incubation, serum purified by DEAE Affi-Gel Blue, RP-HPLC area under the curve of intact peptide, means ± S.E.M. of three experiments in triplicate
Protocol: as §5

in vitro [12] = assay type: in vitro ADME, platypus; settings: 37 °C; for Effect of DPP-4 inhibitor P32/98 on degradation in platypus serum (in words): 100 μM P32/98, 7 μM peptide, RP-HPLC; for remaining at 11 h, 7 μM: platypus, 11 h incubation, 7 μM peptide, serum purified by DEAE Affi-Gel Blue, RP-HPLC area under the curve of intact peptide, means ± S.E.M. of three experiments in triplicate
Protocol: as §5

[13] = purified human serum in the presence of DPP-4 inhibitor P32/98; settings: 37 °C, up to 11 h
[14] = 12.5% echidna serum in 100 mM sodium phosphate buffer (PH 7.4), 150 mM NaCl, 0.2% Tween-20; settings: 37 °C, up to 4 h
[15] = 12.5% human serum in 100 mM sodium phosphate buffer (PH 7.4), 150 mM NaCl, 0.2% Tween-20; settings: 37 °C, up to 4 h
[16] = 12.5% platypus serum in 100 mM sodium phosphate buffer (PH 7.4), 150 mM NaCl, 0.2% Tween-20; settings: 37 °C, up to 4 h

T1 sequence (P43220 24-463): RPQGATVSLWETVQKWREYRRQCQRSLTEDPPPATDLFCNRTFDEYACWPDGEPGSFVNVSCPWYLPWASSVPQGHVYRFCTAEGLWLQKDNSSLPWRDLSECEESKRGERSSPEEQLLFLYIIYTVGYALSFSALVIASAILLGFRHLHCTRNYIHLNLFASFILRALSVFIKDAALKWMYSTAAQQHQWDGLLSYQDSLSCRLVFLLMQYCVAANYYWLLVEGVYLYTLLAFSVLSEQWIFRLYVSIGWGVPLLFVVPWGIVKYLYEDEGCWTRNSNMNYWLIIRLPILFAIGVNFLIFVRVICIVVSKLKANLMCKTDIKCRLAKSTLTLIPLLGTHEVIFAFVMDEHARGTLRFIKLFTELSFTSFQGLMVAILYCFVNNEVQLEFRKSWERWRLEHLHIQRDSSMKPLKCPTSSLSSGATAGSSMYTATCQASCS
Sequence of purified human DPP-4 (P27487 whole entry): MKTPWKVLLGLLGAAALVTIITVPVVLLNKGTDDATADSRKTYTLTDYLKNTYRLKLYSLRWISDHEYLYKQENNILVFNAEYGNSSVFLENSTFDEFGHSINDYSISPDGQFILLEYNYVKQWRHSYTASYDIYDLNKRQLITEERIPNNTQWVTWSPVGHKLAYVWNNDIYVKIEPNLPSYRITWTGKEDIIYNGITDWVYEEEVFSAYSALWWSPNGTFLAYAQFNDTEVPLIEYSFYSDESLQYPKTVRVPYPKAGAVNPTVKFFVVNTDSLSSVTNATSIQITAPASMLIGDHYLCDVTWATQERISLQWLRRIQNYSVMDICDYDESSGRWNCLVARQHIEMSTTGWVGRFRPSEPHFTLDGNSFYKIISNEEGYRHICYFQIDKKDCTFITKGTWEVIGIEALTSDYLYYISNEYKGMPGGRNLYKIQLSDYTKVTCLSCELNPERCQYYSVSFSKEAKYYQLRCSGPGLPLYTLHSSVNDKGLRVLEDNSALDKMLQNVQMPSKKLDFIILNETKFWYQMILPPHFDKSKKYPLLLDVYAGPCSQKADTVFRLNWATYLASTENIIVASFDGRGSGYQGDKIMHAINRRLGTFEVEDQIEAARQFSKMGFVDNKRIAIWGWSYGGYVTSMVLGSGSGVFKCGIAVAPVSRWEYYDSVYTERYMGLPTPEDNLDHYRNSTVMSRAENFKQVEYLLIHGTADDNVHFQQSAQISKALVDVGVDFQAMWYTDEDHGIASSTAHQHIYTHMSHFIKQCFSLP

Compound: CC[C@H](C)[C@H](NC(=O)[C@H](Cc1ccccc1)NC(=O)[C@H](CCC(=O)O)NC(=O)[C@H](CCCCN)NC(=O)[C@H](C)NC(=O)[C@H](C)NC(=O)[C@H](CCC(N)=O)NC(=O)CNC(=O)[C@H](CCC(=O)O)NC(=O)[C@H](CC(C)C)NC(=O)[C@H](Cc1ccc(O)cc1)NC(=O)[C@H](CO)NC(=O)[C@H](CO)NC(=O)[C@@H](NC(=O)[C@H](CC(=O)O)NC(=O)[C@H](CO)NC(=O)[C@@H](NC(=O)[C@H](Cc1ccccc1)NC(=O)[C@@H](NC(=O)CNC(=O)[C@H](CCC(=O)O)NC(=O)[C@H](C)NC(=O)[C@@H](N)Cc1c[nH]cn1)[C@@H](C)O)[C@@H](C)O)C(C)C)C(=O)N[C@@H](C)C(=O)N[C@@H](Cc1c[nH]c2ccccc12)C(=O)N[C@@H](CC(C)C)C(=O)N[C@H](C(=O)N[C@@H](CCCCN)C(=O)NCC(=O)N[C@@H](CCCNC(=N)N)C(=O)NCC(=O)O)C(C)C [hGLP-1]
pEC50 INS-1 (832/13) cAMP accumulation (INS-1 (832/13) cells): 9.6 ± 0.3
pIC50 pGLP-1R CHO (pGLP-1R [1]): 8.9 ± 0.1
half-life at 30 μM (DPP-4 [2]): ≤ 1 h
pEC50 pGLP-1R CHO Ca2+ mobilization (pGLP-1R [3]): 8.3 ± 0.1^&

Compound: HSEGTFTNDVTRLLEEKATSEFIAWLLKGLE [pGLP-1]
EC50 (hGLP-1R [6]): 316 nM
EC50 (hGLP-1R [7]): 2 nM
Stability in albumin-depleted human serum (in words) (in vitro [8]): remained stable
remaining at 11 h, 7 μM (in vitro [8]): 96.4 ± 2%
EC50 (hGLP-1R [9]): 12.6 nM
IC50 (hGLP-1R [10]): 12.6 nM
Degradation by purified human DPP-4 (in words) (purified human DPP-4): not degraded
Uncleaved peptide remaining after 11 hours in echidna serum (in vitro [11]): less than 50%
remaining at 11 h, 7 μM (in vitro [11]): 49.4 ± 2.9%
Effect of DPP-4 inhibitor P32/98 on degradation in platypus serum (in words) (in vitro [12]): did not alter the cleavage pattern
remaining at 11 h, 7 μM (in vitro [12]): 55.1 ± 3.5%

Compound: HFDGVYTDYFSRYLEEKATNEFIDWLLKGQE [eGLP-1]
EC50 (hGLP-1R [6]): 10000 nM
EC50 (hGLP-1R [7]): 126 nM
Stability in albumin-depleted human serum (in words) (in vitro [8]): remained stable
remaining at 11 h, 7 μM (in vitro [8]): 99.3 ± 1.8%
EC50 (hGLP-1R [9]): 794 nM
IC50 (hGLP-1R [10]): 25.1 nM
Degradation by purified human DPP-4 (in words) (purified human DPP-4): not degraded
Uncleaved peptide remaining after 11 hours in echidna serum (in vitro [11]): less than 50%
remaining at 11 h, 7 μM (in vitro [11]): 42.4 ± 4.3%
Effect of DPP-4 inhibitor P32/98 on degradation in platypus serum (in words) (in vitro [12]): did not alter the cleavage pattern
remaining at 11 h, 7 μM (in vitro [12]): 48.3 ± 3.5%

The next lines start with results.

not cleaved [4]: 96.4 ± 2.0% after 11 h
not cleaved (DPP-4 [5]): not degraded by human DPP-4
Compound: HSEGTFTNDVTRLLEEKATSEFIAWLLKGLE
cleaved bond (echidna serum): R12-L13; also recorded: L14-E15; also recorded: E16-K17; also recorded: T19-S20; also recorded: L26-L27; also recorded: K28-G29

not cleaved [4]: 99.3 ± 1.8% after 11 h
not cleaved (DPP-4 [5]): not degraded by human DPP-4
Compound: HFDGVYTDYFSRYLEEKATNEFIDWLLKGQE
cleaved bond (echidna serum): T19-N20; also recorded: R12-Y13; also recorded: Y13-L14

not cleaved [13]: remained intact (0% degraded)
fragment found (echidna serum): hGLP-1 (1-22) HAEGTFTSDVSSYLEGQAAKEF
Compound: HAEGTFTSDVSSYLEGQAAKEFIAWLVKGRG

cleaved bond [14]: Pro-p-nitroanilide
cleaved bond [15]: Pro-p-nitroanilide
cleaved bond [16]: Pro-p-nitroanilide
Compound: H-Ala-Pro-p-nitroanilide
